Reference: PubChem BioAssay (NCI)
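Five concentrations, 48 hours, 96-well plates. GI50 = concentration required for 50% inhibition of growth. TGI marks complete inhibition of growth.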

Legend:
Assay in all cases: NCI-60 cell line screen, 48 h
[1] = test system: PC-3 prostate
[2] = test system: M14 melanoma
[3] = test system: HT29 colon
[4] = test system: NCI-H23 lung
[5] = test system: MALME-3M melanoma
[6] = test system: CAKI-1 renal
[7] = test system: A498 renal
[8] = test system: UO-31 renal
[9] = test system: RXF 393 renal
[10] = test system: SF-539 CNS
[11] = test system: HCT-15 colon
[12] = test system: BT-549 breast
[13] = test system: UACC-257 melanoma
[14] = test system: HS 578T breast
[15] = test system: HCC-2998 colon
[16] = test system: DU-145 prostate
[17] = test system: SNB-19 CNS
[18] = test system: NCI/ADR-RES ovarian
[19] = test system: K-562 leukemia
[20] = test system: COLO 205 colon
[21] = test system: OVCAR-5 ovarian
[22] = test system: SW-620 colon
[23] = test system: UACC-62 melanoma
[24] = test system: NCI-H522 lung
[25] = test system: SN12C renal
[26] = test system: NCI-H226 lung
[27] = test system: SR leukemia
[28] = test system: SK-MEL-28 melanoma
[29] = test system: CCRF-CEM leukemia
[30] = test system: MCF7 breast
[31] = test system: T-47D breast
[32] = test system: NCI-H460 lung
[33] = test system: ACHN renal
[34] = test system: SNB-75 CNS
[35] = test system: LOX IMVI melanoma
[36] = test system: SK-MEL-5 melanoma
[37] = test system: OVCAR-4 ovarian
[38] = test system: OVCAR-3 ovarian
[39] = test system: SK-OV-3 ovarian
[40] = test system: A549 NSCLC
[41] = test system: SF-268 CNS
[42] = test system: IGROV1 ovarian
[43] = test system: SK-MEL-2 melanoma
[44] = test system: MOLT-4 leukemia
[45] = test system: RPMI-8226 leukemia
[46] = test system: OVCAR-8 ovarian
[47] = test system: HOP-92 NSCLC
[48] = test system: KM12 colon
[49] = test system: MDA-MB-231 breast
[50] = test system: HL-60(TB) leukemia
[51] = test system: SF-295 CNS
[52] = test system: TK-10 renal
[53] = test system: HOP-62 NSCLC
[54] = test system: U251 CNS
[55] = test system: MDA-MB-435
[56] = test system: HCT-116 colon
[57] = test system: 786-0 renal
[58] = test system: EKVX NSCLC

For Cn1cc(C2=C(c3cccc([N+](=O)[O-])c3)C(=O)NC2=O)c2ccccc21, the GI50 [1] was 5.61 µM, the TGI [1] was > 25 µM and the GI50 [2] was 12.4 µM. For the same molecule, the TGI [2] was > 25 µM, the GI50 [3] was 7.29 µM and the TGI [3] was > 25 µM. For the same molecule, the GI50 [4] was 6.66 µM, the TGI [4] was > 25 µM and the GI50 [5] was 13.6 µM. The TGI [5] was > 25 µM, the GI50 [6] was 5.5 µM and the TGI [6] was > 25 µM. For the same molecule, the GI50 [7] was 0.539 µM, the TGI [7] was 1.81 µM and the GI50 [8] was 6.46 µM. For the same molecule, the TGI [8] was > 25 µM, the GI50 [9] was 2.12 µM and the TGI [9] was 9.4 µM. For the same molecule, the GI50 [10] was 6.1 µM, the TGI [10] was > 25 µM and the GI50 [11] was 7.97 µM. The TGI [11] was > 25 µM, the GI50 [12] was 6.38 µM and the TGI [12] was > 23.2 µM. For the same molecule, the GI50 [13] was 9.99 µM, the TGI [13] was > 22.7 µM and the GI50 [14] was 2.14 µM. The TGI [14] was > 25 µM, the GI50 [15] was 14.5 µM and the TGI [15] was > 25 µM. The GI50 [16] was 12.7 µM, the TGI [16] was > 25 µM and the GI50 [17] was 19.6 µM. The TGI [17] was > 25 µM, the GI50 [18] was 5.66 µM and the TGI [18] was > 23.1 µM. For the same molecule, the GI50 [19] was 4.85 µM, the TGI [19] was > 25 µM and the GI50 [20] was 8.32 µM. For the same molecule, the TGI [20] was > 25 µM, the GI50 [21] was > 25 µM and the TGI [21] was > 25 µM. For the same molecule, the GI50 [22] was 11.4 µM, the TGI [22] was > 25 µM and the GI50 [23] was 6.58 µM. The TGI [23] was 18.1 µM, the GI50 [24] was 7.66 µM and the TGI [24] was > 22.5 µM. For the same molecule, the GI50 [25] was 9.61 µM, the TGI [25] was > 25 µM and the GI50 [26] was 4.62 µM. For the same molecule, the TGI [26] was > 19.2 µM, the GI50 [27] was 7 µM and the TGI [27] was > 25 µM. For the same molecule, the GI50 [28] was 10.5 µM, the TGI [28] was > 25 µM and the GI50 [29] was 7.19 µM. The TGI [29] was > 25 µM, the GI50 [30] was 3.17 µM and the TGI [30] was > 25 µM. It also gave a GI50 [31] of 6.32 µM, a TGI [31] of 19.4 µM and a GI50 [32] of 8.52 µM. For the same molecule, the TGI [32] was > 25 µM, the GI50 [33] was 4.88 µM and the TGI [33] was > 25 µM. For the same molecule, the GI50 [34] was 0.14 µM, the TGI [34] was > 25 µM and the GI50 [35] was 3.94 µM. The TGI [35] was > 25 µM, the GI50 [36] was 3.63 µM and the TGI [36] was 8.48 µM. For the same molecule, the GI50 [37] was 6.06 µM, the TGI [37] was > 25 µM and the GI50 [38] was 5.33 µM. For the same molecule, the TGI [38] was > 22 µM, the GI50 [39] was 6.35 µM and the TGI [39] was > 25 µM. The GI50 [40] was 8.52 µM, the TGI [40] was > 25 µM and the GI50 [41] was 11.8 µM. The TGI [41] was > 25 µM, the GI50 [42] was 9.98 µM and the TGI [42] was 24.2 µM. The GI50 [43] was 5.24 µM, the TGI [43] was 17.2 µM and the GI50 [44] was 7.18 µM. For the same molecule, the TGI [44] was > 22.8 µM, the GI50 [45] was 7.47 µM and the TGI [45] was > 23.2 µM. For the same molecule, the GI50 [46] was 6.81 µM, the TGI [46] was > 22.4 µM and the GI50 [47] was 4.22 µM. The TGI [47] was > 20.6 µM, the GI50 [48] was 5.05 µM and the TGI [48] was 12.9 µM. The GI50 [49] was 6.42 µM, the TGI [49] was > 25 µM and the GI50 [50] was 7.14 µM. The TGI [50] was 19.1 µM, the GI50 [51] was 2.14 µM and the TGI [51] was > 14 µM. For the same molecule, the GI50 [52] was 12.1 µM, the TGI [52] was > 25 µM and the GI50 [53] was 7.47 µM. The TGI [53] was > 25 µM, the GI50 [54] was 5.9 µM and the TGI [54] was > 25 µM. For the same molecule, the GI50 [55] was 7.46 µM, the TGI [55] was > 25 µM and the GI50 [56] was 5.5 µM. For the same molecule, the TGI [56] was > 25 µM, the GI50 [57] was 6.45 µM and the TGI [57] was > 25 µM.
Molecule COc1ccccc1CNCCCN1C(=O)c2ccc3c4c(ccc(c24)C1=O)C(=O)N(CCCNCCCCN)C3=O has a GI50 [1] of 0.307 µM, a TGI [1] of 2.35 µM and a GI50 [2] of 0.355 µM. The TGI [2] was 1.15 µM, the GI50 [3] was 0.206 µM and the TGI [3] was 0.695 µM. The GI50 [4] was 0.222 µM, the TGI [4] was 0.595 µM and the GI50 [5] was 0.176 µM. For the same molecule, the TGI [5] was 0.327 µM, the GI50 [6] was 3.31 µM and the TGI [6] was > 42.4 µM. For the same molecule, the GI50 [7] was 0.972 µM, the TGI [7] was 2.55 µM and the GI50 [8] was 1.95 µM. For the same molecule, the TGI [8] was 9.92 µM, the GI50 [9] was 0.34 µM and the TGI [9] was 1.41 µM. It also gave a GI50 [10] of 0.296 µM, a TGI [10] of 0.818 µM and a GI50 [11] of 1.85 µM. For the same molecule, the TGI [11] was 10.8 µM, the GI50 [12] was 1.21 µM and the TGI [12] was 2.59 µM. For the same molecule, the GI50 [13] was 0.166 µM, the TGI [13] was 0.317 µM and the GI50 [14] was 1.14 µM. For the same molecule, the TGI [14] was 5.91 µM, the GI50 [15] was 0.171 µM and the TGI [15] was 0.417 µM. For the same molecule, the GI50 [16] was 0.664 µM, the TGI [16] was 2.35 µM and the GI50 [17] was 0.51 µM. The TGI [17] was 2.58 µM, the GI50 [18] was 3.58 µM and the TGI [18] was 22.8 µM. It also gave a GI50 [19] of 0.298 µM, a TGI [19] of 1.27 µM and a GI50 [20] of 0.125 µM. It also gave a TGI [20] of 0.263 µM, a GI50 [21] of 1.06 µM and a TGI [21] of 7.97 µM. The GI50 [22] was 0.161 µM, the TGI [22] was 0.858 µM and the GI50 [23] was 0.237 µM. The TGI [23] was 0.674 µM, the GI50 [24] was 0.182 µM and the TGI [24] was 0.367 µM. For the same molecule, the GI50 [26] was 0.828 µM, the TGI [26] was 2.55 µM and the GI50 [27] was 0.0928 µM. The TGI [27] was 0.82 µM, the GI50 [28] was 0.425 µM and the TGI [28] was 1.54 µM. It also gave a GI50 [29] of 0.304 µM, a TGI [29] of 3.28 µM and a GI50 [30] of 0.202 µM. The TGI [30] was 0.555 µM, the GI50 [31] was 0.573 µM and the TGI [31] was 2.4 µM. The GI50 [32] was 0.313 µM, the TGI [32] was 1 µM and the GI50 [33] was 0.576 µM. For the same molecule, the TGI [33] was 11.1 µM, the GI50 [34] was 0.344 µM and the TGI [34] was 1.67 µM. It also gave a GI50 [35] of 0.202 µM, a TGI [35] of 0.557 µM and a GI50 [36] of 0.164 µM. The TGI [36] was 0.303 µM, the GI50 [37] was 0.165 µM and the TGI [37] was 0.319 µM. The GI50 [38] was 0.304 µM, the TGI [38] was 0.81 µM and the GI50 [39] was 0.495 µM. For the same molecule, the TGI [39] was 2.86 µM, the GI50 [40] was 0.29 µM and the TGI [40] was 1.06 µM. The GI50 [41] was 0.29 µM, the TGI [41] was 1.68 µM and the GI50 [58] was 1.15 µM. It also gave a TGI [58] of 2.82 µM, a GI50 [42] of 0.464 µM and a TGI [42] of 15.9 µM. For the same molecule, the GI50 [43] was 0.233 µM, the TGI [43] was 0.49 µM and the GI50 [44] was 0.324 µM. For the same molecule, the TGI [44] was 1.26 µM, the GI50 [45] was 0.445 µM and the TGI [45] was 6.13 µM. For the same molecule, the GI50 [46] was 0.244 µM, the TGI [46] was 0.933 µM and the GI50 [47] was 0.4 µM. It also gave a TGI [47] of 1.65 µM, a GI50 [48] of 0.332 µM and a TGI [48] of 1.29 µM. For the same molecule, the GI50 [49] was 0.236 µM, the TGI [49] was 2.78 µM and the GI50 [50] was 0.229 µM. It also gave a TGI [50] of 0.527 µM, a GI50 [51] of 0.678 µM and a TGI [51] of 2.79 µM. It also gave a GI50 [52] of 0.976 µM, a TGI [52] of 4.63 µM and a GI50 [53] of 0.546 µM. For the same molecule, the TGI [53] was 2.1 µM, the GI50 [54] was 0.206 µM and the TGI [54] was 0.731 µM. For the same molecule, the GI50 [55] was 0.184 µM, the TGI [55] was 0.397 µM and the GI50 [56] was 0.216 µM. It also gave a TGI [56] of 0.694 µM, a GI50 [57] of 0.616 µM and a TGI [57] of 3.67 µM.
